For data set [1], the target named is T1, recombinant human transglutaminase 2 (Homo sapiens, UniProt P21980).
T1 construct: purchased Zedira T022
T1 sequence (P21980 1-687): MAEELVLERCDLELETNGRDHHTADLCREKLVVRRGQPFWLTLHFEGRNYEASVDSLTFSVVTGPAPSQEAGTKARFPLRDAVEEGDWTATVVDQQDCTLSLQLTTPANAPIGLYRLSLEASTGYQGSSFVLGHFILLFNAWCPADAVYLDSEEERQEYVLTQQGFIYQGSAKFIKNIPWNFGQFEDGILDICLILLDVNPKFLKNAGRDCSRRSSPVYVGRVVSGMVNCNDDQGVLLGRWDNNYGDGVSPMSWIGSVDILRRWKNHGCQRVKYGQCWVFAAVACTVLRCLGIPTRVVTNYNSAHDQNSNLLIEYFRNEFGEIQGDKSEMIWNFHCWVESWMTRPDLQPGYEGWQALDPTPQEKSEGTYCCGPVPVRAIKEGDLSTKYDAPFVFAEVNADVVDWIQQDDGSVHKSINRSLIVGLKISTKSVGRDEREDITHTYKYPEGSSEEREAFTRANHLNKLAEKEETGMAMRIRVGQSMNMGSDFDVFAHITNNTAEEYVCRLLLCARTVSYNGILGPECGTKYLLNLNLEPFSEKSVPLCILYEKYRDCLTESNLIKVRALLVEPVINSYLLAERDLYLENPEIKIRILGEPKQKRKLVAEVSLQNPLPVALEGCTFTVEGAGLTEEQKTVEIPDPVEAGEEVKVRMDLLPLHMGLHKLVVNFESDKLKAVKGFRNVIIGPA
As to the kind of experiment: Transglutaminase assay (DCC-assay): incorporation of dansylcadaverine into dimethylcasein. Type of data set: biochemical. In short, it runs like this:
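Recombinant human TG2 (10 nM final) incorporates dansylcadaverine into N,N-dimethylcasein. Reaction mix: 50 mM Tris-HCl, 10 mM CaCl2, 10 mM glutathione, 2.5% glycerol, 16.7 µM dansylcadaverine, 4 µM dimethylcasein, 200 mM NaCl, pH 8.0. Fluorescence (ex 330/em 500 nm) was followed 30 min at 37 °C; the 20–30 min slope, expressed as % of 2% DMSO control, gave IC50.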

Data set [2] in a line: Multiple-dosing PK study, tissue concentration in lung and liver. It counts as in vivo. The following applies: mice, 200 mg/kg oral twice daily, after the eighth dose (four days). On the procedure:
Additionally, in a multiple-dosing PK study, II-3 was orally administered to 3 mice with 200 mg/kg doses (dose volume 10 mL/kg) twice daily (12 h intervals). After the animals were sacrificed, the liver and lung were removed. The homogenates of the respective tissues were analyzed by LC-MS to determine the concentration of the compound. The tissue concentration in lung and liver after the eighth dose (four days) was 6,800 and 10,400 ng/g, respectively, showing that the compound reaches the tissue at pharmacological active concentration.

Data set [3] can be described thus: Caco-2 permeability assay (CacoReady kit). Type of data set: in vitro ADME. The conditions noted are these: human. In a few lines:
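Papp values come from Caco-2 barrier studies intended to predict oral bioavailability; the manufacturer's procedure for the ready-made kit was followed.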

Results on one compound are retold here after patent US20240383856A1 (Zedira GmbH, priority 2021, published 2024).

SMILES strings stand for the structures. Where two headings read alike, the source gives them in different places. Bounds are passed on as bounds.

The IC90 is the point of the concentration-response curve where the effect stands at 90%. For orientation: IC50 means the midpoint of a concentration-inhibition curve. Regarding `CNC(=O)C(=O)CC[C@H](NC(=O)c1oc2ccccc2c1C)C(=O)Nc1cccn(CC(=O)NC2C3CC4CC(C3)CC2C4)c1=O` (stereo partly drawn) [II-3, (S)-N1-(1-(2-(2-adamantylamino)-2-oxoethyl)-2-oxo-1,2-dihydropyridin-3-yl)-N6-methyl-2-(3-methylbenzofuran-2-carboxamido)-5-oxohexanediamide], in data set [1] (TG2, table with the PK study), the IC90 came to 0.18 µM. Besides, the half-maximal inhibitory concentration (IC50) was 0.023 µM in data set [1] (TG2, table with the PK study, read-out: IC50) and < 0.04 µM in data set [1] (recombinant human TG2 10 nM, dansylcadaverine incorporation into dimethylcasein, read-out: IC50 TG2). Further, the “tissue concentration in liver” value in data set [2] was 10,400 ng/g. For the same compound, the “tissue concentration in lung” value in data set [2] was 6,800 ng/g. Also, the Papp was 8.4 ×10⁻⁶ cm/s in data set [3] (Caco-2, Caco-2, read-out: Papp [cm/s] ×10^−6) and 1 to 10 ×10⁻⁶ cm/s in data set [3] (Caco-2, Caco-2 barrier, CacoReady kit, above 1×10^−6 cm/s classified as permeable).
